Patent US7858332B2, “Chemoprevention of endometrial cancer” (The Brigham and Women's Hospital, Inc., priority 2006, dated 2010)

System: PTEN-null endometrial glands (latent endometrial precancers)
Experiment: Latent precancers (PTEN-null glands by immunohistochemistry) in paired endometrial biopsies before and after progestin therapy
Assay type: in vivo, women
Conditions: pre versus post therapy
Protocol: Women in Northern Norway (Tromso region) with successive endometrial biopsies taken under different hormonal conditions form the three main experimental groups of this study. Clinical aspects of these patients have been published elsewhere (Vereide, et al., Gynecol Oncol 91:526-33 (2003)), but will be summarized here. […] Just under half (10 of 22 reported in results) received low dose hormonal replacement therapy as follows: norestrin 1 mg/estradiol 2mg daily (6 patients), estriol 1-2mg daily (3 patients), tibolone 2.5 mg daily (1 patient), no therapy (12 patients). All patient materials were compiled from existing pathologic tissues generated as part of routine patient care (“discarded materials”), except for the P-IUD group, which was consented in advance. […]
Paraffin sections of endometrial biopsy and curetting specimens were rehydrated, and underwent antigen retrieval by microwave before overnight (4° C.) incubation with 1:300 murine monoclonal anti-PTEN antibody 6h2.1 (Cascade Biosciences, Winchester, Mass.) as previously described (Mutter, et al, Cancer Res 61:43114 (2001)). Slides were washed, and incubated with appropriate secondary biotinylated immunoglobulin (Vectastain ABC kit, Vector Laboratories, Inc., Burlingame, Calif.) and signal detected by sequential addition of avidin peroxidase and 3,3′-diaminobenzidine. […]

SMILES: CC(=O)[C@@]1(O)CC[C@H]2[C@@H]3C[C@H](C)C4=CC(=O)CC[C@]4(C)[C@H]3CC[C@@]21C [p-cycle, medroxyprogesterone]
- Change of latent precancers after therapy (in words): non-significant changes
